From publication doi:10.1101/2024.09.04.610228v1 (bioRxiv, 2024)
Peptide text beside a SMILES is read from it.

Experiments:
[1] = tested on: FOXO4 foci in senescent A375 cells; assay: Immunofluorescence of FOXO4 foci in nuclei of senescent A375 cells; format: cell-based, Human; conditions: doxorubicin-induced senescent A375 cells; 30 μM CPP-CAND, 24 h; vs DMSO mock
[2] = tested on: caspase 3/7; assay: Caspase 3/7 activity; format: cell-based, Human; conditions: senescent A375 cells; 20 μM, 24 h
[3] = tested on: A375 cells; assay: MTS cell viability assay, dividing vs cisplatin; format: cell-based, Human; conditions: dividing vs CDDP (4 µM)-induced senescent A375 cells
[4] = target: FOXO4 FHD (Homo sapiens, UniProt P98177); assay: FPA competition assay; format: binding; conditions: FPA competition analysis
Chain of FOXO4 FHD (P98177 95-195): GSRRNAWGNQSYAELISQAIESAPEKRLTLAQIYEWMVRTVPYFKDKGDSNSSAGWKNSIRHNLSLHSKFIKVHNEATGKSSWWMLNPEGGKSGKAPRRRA

SMILES | Reduction in number of FOXO4 foci in nuclei [1] | Caspase 3/7 activity (percentage of green fluorescent cells), senescent cells [2] | SI75 (selectivity index from IC75 values) [3] | Enhancement of inhibitory ability compared to p53 TAD PEP [4]
CC[C@H](C)[C@H](NC(=O)[C@H](C)NC(=O)[C@H](C)NC(=O)[C@@H]1CCCN1C(=O)[C@H](CO)NC(=O)[C@H](CC(C)C)NC(=O)[C@H](CCSC)NC(=O)[C@H](CC(C)C)NC(=O)[C@H](C)NC(=O)[C@@H]1CCCN1C(=O)[C@@H]1CCCN1C(=O)[C@H](CCCNC(=N)N)NC(=O)[C@H](CCCNC(=N)N)NC(=O)[C@H](CCCNC(=N)N)NC(=O)[C@H](CCC(N)=O)NC(=O)[C@H](CCCNC(=N)N)NC(=O)[C@H](CCCNC(=N)N)NC(=O)[C@H](CCCCN)NC(=O)[C@H](CCCCN)NC(=O)[C@H](CCCNC(=N)N)NC(=O)CN)C(=O)N[C@@H](C)C(=O)N[C@@H](CCC(N)=O)C(=O)N[C@@H](Cc1c[nH]c2ccccc12)C(=O)N[C@@H](Cc1ccccc1)C(=O)N[C@H](C(=O)N[C@@H](C)C(=O)N[C@@H](C)C(=O)O)[C@@H](C)O [CPP-CAND] (H-GRKKRRQRRRPPALMLSPAAIAQWFTAA-OH; N-terminus and C-terminus assumed) | approximately 7.1 fold | 44% | approximately 2.4 | –
CC[C@H](C)[C@H](NC(=O)[C@H](C)NC(=O)[C@H](C)NC(=O)[C@@H]1CCCN1C(=O)[C@H](CO)NC(=O)[C@H](CC(C)C)NC(=O)[C@H](CCSC)NC(=O)[C@H](CC(C)C)NC(=O)[C@H](C)N)C(=O)N[C@@H](C)C(=O)N[C@@H](CCC(N)=O)C(=O)N[C@@H](Cc1c[nH]c2ccccc12)C(=O)N[C@@H](Cc1ccccc1)C(=O)N[C@H](C(=O)N[C@@H](C)C(=O)N[C@@H](C)C(=O)O)[C@@H](C)O [CAND] (H-ALMLSPAAIAQWFTAA-OH; N-terminus and C-terminus assumed) | – | – | – | approximately three-fold
